Biological target: T1, S-adenosyl-L-homocysteine hydrolase from T. maritima (TmSAHase; iTmSAHase as purified, htTmSAHase after heat treatment) (Thermotoga maritima, UniProt O51933)
T1 sequence (O51933 1-404): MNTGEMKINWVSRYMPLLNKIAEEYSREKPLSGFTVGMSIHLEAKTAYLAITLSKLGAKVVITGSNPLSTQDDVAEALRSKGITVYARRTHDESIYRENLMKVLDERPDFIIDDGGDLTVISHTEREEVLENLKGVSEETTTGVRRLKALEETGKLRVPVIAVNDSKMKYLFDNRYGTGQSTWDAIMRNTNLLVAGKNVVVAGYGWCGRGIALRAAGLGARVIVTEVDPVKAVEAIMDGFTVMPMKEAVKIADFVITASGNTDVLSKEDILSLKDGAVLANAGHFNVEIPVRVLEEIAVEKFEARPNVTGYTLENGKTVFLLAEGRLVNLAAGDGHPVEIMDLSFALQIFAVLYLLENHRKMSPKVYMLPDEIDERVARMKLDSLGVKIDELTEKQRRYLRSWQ
Experiment: isothermal titration calorimetry
Assay type: binding

Kd (htTmSAHase/AMP)	Kd (iTmSAHase/AMP)	SMILES	Kd (htTmSAHase/Ado)	Kd (iTmSAHase/Ado)
25 ± 2 µM	30 ± 3 µM	Nc1ncnc2c1ncn2[C@@H]1O[C@H](COP(=O)(O)O)[C@@H](O)[C@H]1O [AMP, adenosine 5′-monophosphate]		
		Nc1ncnc2c1ncn2[C@@H]1O[C@H](CO)[C@@H](O)[C@H]1O [Ado, adenosine]	8.8 ± 1.2 µM	19 ± 1.5 µM
